# Measurements taken from patent US20040214864A1, “Novel compounds” (priority 2000, published 2004).
# Counter-ions that a name gives are not always drawn.
row,SMILES,melting point
1,"CN(C)CC(C)(C)CNC(=O)c1cccc(-c2nn(Cc3cccc(Cl)c3)c(=S)[nH]2)c1 [Example 15, 3-{1-[(3-Chlorophenyl)methyl]-1,2-dihydro-5thioxo-1H[1,2,4]triazol-3-yl}-N-(2-methyl-2-dimethylaminomethylpropyl)benzamide]",173 to 175 °C
2,"O=C(NCCO)c1ccc(-c2nn(Cc3cccc(Cl)c3)c(=S)[nH]2)cc1 [Example 7, 4-[1-[(3-Chlorophenyl)methyl]-4,5-dihydro-5-thioxo-1H-1,2,4-triazol-3-yl]-N-(2-hydroxyethyl)-benzamide]",188 to 190 °C
3,"CC(C)CCNC(=O)c1ccc(-c2nn(Cc3cccc(Cl)c3)c(=S)[nH]2)cc1 [Example 5, 4-[1-[(3-Chlorophenyl)methyl]-4,5-dihydro-5-thioxo-1H-1,2,4-triazol-3-yl]-N-(3-methylbutyl)-benzamide]",218 to 220 °C
4,"NS(=O)(=O)c1ccc(-c2nn(Cc3cccc(Cl)c3)c(=S)[nH]2)cc1 [Example 13, 4-[1-[(3-chlorophenyl)methyl]-4,5dihydro-5-thioxo-1H-1,2,4-triazol-3-yl]-benzenesulfonamide]",281 to 283 °C
5,"C[C@@H](NC(=O)c1ccc(-c2nn(Cc3cccc(Cl)c3)c(=S)[nH]2)cc1)[C@@H](O)c1ccccc1 [Example 6, [1R, 2S]-4-[1-[(3-Chlorophenyl)methyl]-4,5-dihydro-5-thioxo-1H-1,2,4-triazol-3-yl]-N-(2-hydroxy-1-methyl-2-phenylethyl)-benzamide]",220 to 222 °C
6,"O=C(c1ccc(-c2nn(Cc3cccc(Cl)c3)c(=S)[nH]2)cc1)N1CCN(c2cccc(Cl)c2)CC1 (as salt: hydrochloride) [Example 8, 2-[(3-Chlorophenyl)methyl]-5-[4-[[4-(3-chlorophenyl)-1-piperazinyl]carbonyl]phenyl]-2,4-dihydro-3H-1,2,4-triazole-3-thione]",260 to 262 °C
7,COC(=O)C(CO)NC(=O)c1cccc(-c2nn(Cc3cccc(Cl)c3)c(=S)[nH]2)c1 (stereo not shown) [Example 14],188 to 196 °C

# The next lines start with the values.
row,melting point,SMILES
1,234 to 238 °C,"O=C(O)c1ccccc1-c1nn(Cc2cccc(Cl)c2)c(=S)[nH]1 [Example 11, 2-[1-[(3-Chlorophenyl)methyl]-4,5-dihydro-5-thioxo-1H-1,2,4-triazol-3-yl]-benzoic acid]"
2,184 to 187 °C,"CN(C)C(=O)c1cccc(-c2nn(Cc3cccc(Cl)c3)c(=S)[nH]2)c1 [Example 16, 3-{1-[(3-Chlorophenyl)methyl]-1,2-dihydro-5thioxo-1H[1,2,4]triazol-3-yl}-N,N-dimethylbenzamide]"
3,310 to 312 °C,"NC(=O)c1ccc(-c2nn(Cc3cccc(Cl)c3)c(=S)[nH]2)cc1 [Example 3, 4-[1-[(3-Chlorophenyl)methyl]-4,5dihydro-5-thioxo-1H-1,2,4-triazol-3-yl]-benzamide]"
4,302 °C,"O=C(O)c1ccc(-c2nn(Cc3cccc(Cl)c3)c(=S)[nH]2)cc1 [Example 1, 4-[1-[(3-Chlorophenyl)methyl]-4,5-dihydro-5-thioxo-1H-1,2,4-triazol-3-yl]-benzoic acid]"
5,302 to 304 °C,"CN(C)C(=O)c1ccc(-c2nn(Cc3cccc(Cl)c3)c(=S)[nH]2)cc1 [Example 4, 4-[1-[(3-Chlorophenyl)methyl]-4,5-dihydro-5-thioxo-1H-1,2,4-triazol-3-yl]-N,N-dimethyl-benzamide]"
6,314 to 316 °C,"O=C(O)c1cccc(-c2nn(Cc3cccc(Cl)c3)c(=S)[nH]2)c1 [Example 12, 3-[1-[(3-Chlorophenyl)methyl]-4,5-dihydro-5-thioxo-1H-1,2,4-triazol-3-yl]-benzoic acid]"
7,165 to 168 °C,O=C(NCCF)c1cccc(Cn2nc(-c3ccccc3Cl)[nH]c2=S)c1 [Example 18]
8,263.5 to 264.5 °C,"COC(=O)c1ccc(-c2nn(Cc3cccc(Cl)c3)c(=S)[nH]2)cc1 [Example 2, Methyl 4-[1-[(3-Chlorophenyl)methyl]-4,5-dihydro-5-thioxo-1H-1,2,4-triazol-3-yl]-benzoate]"
9,178 to 182 °C,N#CCNC(=O)c1cccc(Cn2nc(-c3ccccc3Cl)[nH]c2=S)c1 [Example 17]
